# Species: Rattus norvegicus
# Assay: Inhibition of [3H]norepinephrine uptake was determined in rat brain synaptosomal preparation
# Type: functional
row,Compound,IC50
1,N[C@H]1C=Cc2ccccc2C1 (racemic),650 nM
2,CC(N)Cc1ccccc1 (racemic),490 nM
3,N[C@H]1CCc2ccccc2C1 (racemic),850 nM
4,CC[C@H](N)Cc1ccccc1 (racemic),6500 nM
